According to the supplement of paper PMC10307832:

What was measured:
Test in all cases: relative viability (nuclei count vs DMSO), 5 days (fraction); higher = more cells survive
NCI-H1395 = tested on: NCI-H1395
In short: (§1)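 Lung cancer cell lines, seeded in 1536-well plates, were treated the following day by pin tool with a single drug or with five library-drug doses (not always all listed) in √10 steps on top of a fixed anchor-drug dose. Cells were fixed and nuclei stained in one step after 5 days, and nuclei were counted. Relative viability is the nuclei count for treated wells divided by that for vehicle wells, reported as medians of duplicate plates.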

UMC-11 = tested on: UMC-11
In short: as §1

ABC-1 = tested on: ABC-1
In short: as §1

201T = tested on: 201T
In short: as §1

NCI-H1915 = tested on: NCI-H1915
In short: as §1

NCI-H661 = tested on: NCI-H661
In short: as §1

NCI-H2405 = tested on: NCI-H2405
In short: as §1

EMC-BAC-2 = tested on: EMC-BAC-2
In short: as §1

HCC-78 = tested on: HCC-78
In short: as §1

NCI-H1437 = tested on: NCI-H1437
In short: as §1

NCI-H1793 = tested on: NCI-H1793
In short: as §1

NCI-H23 = tested on: NCI-H23
In short: as §1

SK-LU-1 = tested on: SK-LU-1
In short: as §1

NCI-H1651 = tested on: NCI-H1651
In short: as §1

NCI-H1792 = tested on: NCI-H1792
In short: as §1

NCI-H2023 = tested on: NCI-H2023
In short: as §1

NCI-H647 = tested on: NCI-H647
In short: as §1

NCI-H1975 = tested on: NCI-H1975
In short: as §1

RERF-LC-KJ = tested on: RERF-LC-KJ
In short: as §1

LOU-NH91 = tested on: LOU-NH91
In short: as §1

EPLC-272H = tested on: EPLC-272H
In short: as §1

LCLC-103H = tested on: LCLC-103H
In short: as §1

NCI-H1734 = tested on: NCI-H1734
In short: as §1

With `O=C(O)CCCCC(CCSCc1ccccc1)SCc1ccccc1` (centres undefined) [CPI-613] + O=C(c1cc(Cc2n[nH]c(=O)c3ccccc23)ccc1F)N1CCN(C(=O)C2CC2)CC1 [Olaparib] (partner 8 µM) the relative viability (NCI-H1395; first compound 5 µM) was 0.473, the relative viability (NCI-H1395; first compound 15.81 µM) was 0.479 and the relative viability (NCI-H1395; first compound 50 µM) was 0.469. The relative viability (NCI-H1395; first compound 158.11 µM) was 0.436, the relative viability (NCI-H1395; first compound 500 µM) was 0.266 and the relative viability (UMC-11; first compound 5 µM) was 0.352. For the same compound, the relative viability (UMC-11; first compound 15.81 µM) was 0.371, the relative viability (UMC-11; first compound 50 µM) was 0.375 and the relative viability (UMC-11; first compound 158.11 µM) was 0.155. For the same compound, the relative viability (UMC-11; first compound 500 µM) was 0.115, the relative viability (ABC-1; first compound 5 µM) was 0.816 and the relative viability (ABC-1; first compound 15.81 µM) was 0.845. For the same compound, the relative viability (ABC-1; first compound 50 µM) was 0.957, the relative viability (ABC-1; first compound 158.11 µM) was 0.448 and the relative viability (ABC-1; first compound 500 µM) was 0.383. The relative viability (201T; first compound 5 µM) was 0.849, the relative viability (201T; first compound 15.81 µM) was 0.788 and the relative viability (201T; first compound 50 µM) was 0.776. It also gave a relative viability (201T; first compound 158.11 µM) of 0.594, a relative viability (201T; first compound 500 µM) of 0.633 and a relative viability (NCI-H1915; first compound 5 µM) of 0.25. It also gave a relative viability (NCI-H1915; first compound 15.81 µM) of 0.258, a relative viability (NCI-H1915; first compound 50 µM) of 0.265 and a relative viability (NCI-H1915; first compound 158.11 µM) of 0.124. The relative viability (NCI-H1915; first compound 500 µM) was 0.0608, the relative viability (NCI-H661; first compound 5 µM) was 0.714 and the relative viability (NCI-H661; first compound 15.81 µM) was 0.726. It also gave a relative viability (NCI-H661; first compound 50 µM) of 0.718, a relative viability (NCI-H661; first compound 158.11 µM) of 0.399 and a relative viability (NCI-H661; first compound 500 µM) of 0.153. The relative viability (NCI-H2405; first compound 5 µM) was 0.89, the relative viability (NCI-H2405; first compound 15.81 µM) was 0.787 and the relative viability (NCI-H2405; first compound 50 µM) was 0.781. It also gave a relative viability (NCI-H2405; first compound 158.11 µM) of 0.25, a relative viability (NCI-H2405; first compound 500 µM) of 0.0972 and a relative viability (EMC-BAC-2; first compound 5 µM) of 0.508. It also gave a relative viability (EMC-BAC-2; first compound 15.81 µM) of 0.432, a relative viability (EMC-BAC-2; first compound 50 µM) of 0.484 and a relative viability (EMC-BAC-2; first compound 158.11 µM) of 0.199. The relative viability (EMC-BAC-2; first compound 500 µM) was 0.229, the relative viability (HCC-78; first compound 15.81 µM) was 0.792 and the relative viability (HCC-78; first compound 50 µM) was 0.857. For the same compound, the relative viability (HCC-78; first compound 158.11 µM) was 0.842, the relative viability (HCC-78; first compound 500 µM) was 0.711 and the relative viability (NCI-H1437; first compound 5 µM) was 0.599. It also gave a relative viability (NCI-H1437; first compound 15.81 µM) of 0.595, a relative viability (NCI-H1437; first compound 50 µM) of 0.508 and a relative viability (NCI-H1437; first compound 158.11 µM) of 0.112. It also gave a relative viability (NCI-H1437; first compound 500 µM) of 0.0622, a relative viability (NCI-H1793; first compound 5 µM) of 0.75 and a relative viability (NCI-H1793; first compound 15.81 µM) of 0.789. For the same compound, the relative viability (NCI-H1793; first compound 50 µM) was 0.856, the relative viability (NCI-H1793; first compound 158.11 µM) was 0.146 and the relative viability (NCI-H1793; first compound 500 µM) was 0.0648. The relative viability (NCI-H23; first compound 5 µM) was 0.33, the relative viability (NCI-H23; first compound 15.81 µM) was 0.28 and the relative viability (NCI-H23; first compound 50 µM) was 0.282. The relative viability (NCI-H23; first compound 158.11 µM) was 0.0911, the relative viability (NCI-H23; first compound 500 µM) was 0.0098 and the relative viability (SK-LU-1; first compound 5 µM) was 0.416. For the same compound, the relative viability (SK-LU-1; first compound 15.81 µM) was 0.392, the relative viability (SK-LU-1; first compound 50 µM) was 0.427 and the relative viability (SK-LU-1; first compound 158.11 µM) was 0.352. For the same compound, the relative viability (SK-LU-1; first compound 500 µM) was 0.238, the relative viability (NCI-H1651; first compound 5 µM) was 0.189 and the relative viability (NCI-H1651; first compound 15.81 µM) was 0.192. It also gave a relative viability (NCI-H1651; first compound 50 µM) of 0.189, a relative viability (NCI-H1651; first compound 158.11 µM) of 0.198 and a relative viability (NCI-H1651; first compound 500 µM) of 0.175. The relative viability (NCI-H1792; first compound 5 µM) was 0.391, the relative viability (NCI-H1792; first compound 15.81 µM) was 0.358 and the relative viability (NCI-H1792; first compound 50 µM) was 0.328. For the same compound, the relative viability (NCI-H1792; first compound 158.11 µM) was 0.0603, the relative viability (NCI-H1792; first compound 500 µM) was 0.087 and the relative viability (NCI-H2023; first compound 5 µM) was 0.47. The relative viability (NCI-H2023; first compound 15.81 µM) was 0.425, the relative viability (NCI-H2023; first compound 50 µM) was 0.41 and the relative viability (NCI-H2023; first compound 158.11 µM) was 0.134. For the same compound, the relative viability (NCI-H2023; first compound 500 µM) was 0.009, the relative viability (NCI-H647; first compound 5 µM) was 0.426 and the relative viability (NCI-H647; first compound 15.81 µM) was 0.528. It also gave a relative viability (NCI-H647; first compound 50 µM) of 0.331, a relative viability (NCI-H647; first compound 158.11 µM) of 0.0348 and a relative viability (NCI-H647; first compound 500 µM) of 0.0133. For the same compound, the relative viability (NCI-H1975; first compound 5 µM) was 0.745, the relative viability (NCI-H1975; first compound 15.81 µM) was 0.758 and the relative viability (NCI-H1975; first compound 50 µM) was 0.85. For the same compound, the relative viability (NCI-H1975; first compound 158.11 µM) was 0.563, the relative viability (NCI-H1975; first compound 500 µM) was 0.099 and the relative viability (RERF-LC-KJ; first compound 5 µM) was 0.979. The relative viability (RERF-LC-KJ; first compound 15.81 µM) was 0.83, the relative viability (RERF-LC-KJ; first compound 50 µM) was 0.804 and the relative viability (RERF-LC-KJ; first compound 158.11 µM) was 0.273. It also gave a relative viability (RERF-LC-KJ; first compound 500 µM) of 0.133, a relative viability (LOU-NH91; first compound 5 µM) of 0.883 and a relative viability (LOU-NH91; first compound 15.81 µM) of 0.86. The relative viability (LOU-NH91; first compound 50 µM) was 0.867, the relative viability (LOU-NH91; first compound 158.11 µM) was 0.442 and the relative viability (LOU-NH91; first compound 500 µM) was 0.533. It also gave a relative viability (EPLC-272H; first compound 5 µM) of 0.812, a relative viability (EPLC-272H; first compound 15.81 µM) of 0.683 and a relative viability (EPLC-272H; first compound 50 µM) of 0.653. For the same compound, the relative viability (EPLC-272H; first compound 158.11 µM) was 0.198, the relative viability (EPLC-272H; first compound 500 µM) was 0.083 and the relative viability (LCLC-103H; first compound 5 µM) was 0.755. The relative viability (LCLC-103H; first compound 15.81 µM) was 0.669, the relative viability (LCLC-103H; first compound 50 µM) was 0.733 and the relative viability (LCLC-103H; first compound 158.11 µM) was 0.55. It also gave a relative viability (LCLC-103H; first compound 500 µM) of 0.717, a relative viability (NCI-H1734; first compound 5 µM) of 0.584 and a relative viability (NCI-H1734; first compound 15.81 µM) of 0.596. The relative viability (NCI-H1734; first compound 50 µM) was 0.516, the relative viability (NCI-H1734; first compound 158.11 µM) was 0.373 and the relative viability (NCI-H1734; first compound 500 µM) was 0.173.
